Test results reported in BindingDB's records for patent US20250032625 (Merck Patent, 2025).

Target: T1, Transcriptional enhancer factor TEF-1 [209-426] (UniProt P28347)
T1 construct: 209-426
Experiment: Surface Plasmon Resonance (SPR) Assay
Protocol: The kinetic and affinity parameters of protein-exemplary compound interactions were evaluated by SPR. hsTEAD1 (209-426) was immobilized onto a CM7 (Series S) sensor chip via the standard amine coupling procedure, at 15° C. Prior to immobilization, the carboxymethylated surface of the chip was activated with 400 mM 1-ethyl-3-(3-dimethylaminopropyl)-carbodiimide and 100 mM N-hydroxysuccinimide for 10 min. hsTEAD1 (209-426) was diluted to 11 μg/mL in 10 mM Bis-Tris at pH 6.5 and immobilized on the activated surface chip for 8 and 10 min, in order to reach 6000 to 9000 response units (RU). The remaining activated carboxymethylated groups were blocked with a 7 min injection of 1 M ethanolamine pH 8.5 after which the surface chip was washed with 0.5% (w/v) sodium dodecyl sulphate and 50 mM glycine. HBS-N, which consists of 10 mM HEPES pH 7.4 and 150 mM NaCl, was used as the background buffer during immobilization. Exemplary compounds were prediluted in DMSO, diluted 1:50 in running buffer (20 mM Tris pH 7.4, 150 mM NaCl, 1 mM DTT, 5 mM MgCl2, 0.1 mM EGTA, 0.05% CHAPS) and injected at ten different concentrations using two-fold dilution series, from 100 μM to 0.2 μM. A DMSO solvent correction (1%-3%) was performed to account for variations in bulk signal and to achieve high-quality data. […]

T1 sequence (P28347 209-426): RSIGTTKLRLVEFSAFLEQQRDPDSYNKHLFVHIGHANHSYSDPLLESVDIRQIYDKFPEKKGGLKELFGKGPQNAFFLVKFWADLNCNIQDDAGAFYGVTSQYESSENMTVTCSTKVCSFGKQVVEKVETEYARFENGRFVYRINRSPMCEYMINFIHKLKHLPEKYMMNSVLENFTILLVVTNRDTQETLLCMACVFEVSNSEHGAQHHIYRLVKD

Question: How did the Kd turn out when Cn1cc2c3cc(C(=O)NCCOCCOCCOCCOCCOc4cccc5c4C(=O)N(C4CCC(=O)NC4=O)C5=O)ccc3n(-c3ccc(C(F)(F)F)cc3)c2n1 (stereo unspecified) [US20250032625, Compound 16] was run?
Answer: 3.01 µM
